# Measurements: publication PMC9797896 (Medicinal Chemistry Research, 2022)
# Values joined by “and” are separate entries in the source; they are usually repeats but may differ in a detail not shown here. Equal entries are not always repeated. Where two headings read alike, the source gives them in different places.
# System: SARS-CoV-2 (Omicron variant, B.1.1.529/BA.2 sublineage)
# Experiment: microbe, parasite or virus in culture
# Type: cell-based
# Conditions: for EC50 / EC90: Severe acute respiratory syndrome coronavirus 2, Vero C1008, 48 h; for EC90: read-out: 90% Reduction in Infectious Virus (EC90); for time to maximal effectiveness against the Omicron variant particles: after starting administration and treatment
# [1] = read-out: 50% Reduction in Infectious Virus (EC50)
# [2] = read-out: 50% Reduction in Viral RNA Copy (EC50)
SMILES,100% CPE Inhibitory Concentration (CPEIC100),EC50 [1],EC50 [2],EC90,time to maximal effectiveness against the Omicron variant particles,100% CPE Inhibitory Concentration (CPEIC100) (listed as forodesine)
"O=c1[nH]cnc2c([C@@H]3N[C@H](CO)[C@@H](O)[C@H]3O)c[nH]c12 [Forodesine, forodesine]",1.69 ± 0.06 µM,~700 nM,730 ± 40 nM,2200 ± 60 nM,4 to 10 h,1.69 µM
"CC(C)Nc1nc2cc(Cl)c(Cl)cc2n1[C@H]1O[C@@H](CO)[C@H](O)[C@@H]1O [Maribavir, maribavir]",7.97 ± 0.27 µM,3050 ± 130 nM,3200 ± 140 nM,12300 ± 330 nM,,
"CC(C)C(=O)OC[C@H]1O[C@@H](n2ccc(NO)nc2=O)[C@H](O)[C@@H]1O [Molnupiravir, molnupiravir]",6.28 µM and 6.28 ± 0.28 µM,2610 ± 100 nM,2730 ± 110 nM,9100 ± 310 nM,,
"COc1nc(N)nc2c1ncn2[C@@H]1O[C@H](CO)[C@@H](O)[C@@H]1O [Nelarabine, nelarabine]",,1680 ± 80 nM,1750 ± 80 nM,6460 ± 180 nM,,
"CCC(CC)COC(=O)[C@H](C)N[P@](=O)(OC[C@H]1O[C@@](C#N)(c2ccc3c(N)ncnn23)[C@H](O)[C@@H]1O)Oc1ccccc1 [Remdesivir, remdesivir]",5.99 µM and 5.99 ± 0.20 µM,2070 ± 80 nM,,8010 ± 290 nM,,
"CC(C)=CCNc1ncnc2c1ncn2[C@@H]1O[C@H](CO)[C@@H](O)[C@H]1O [Riboprine, N^6-(2-Isopentenyl)adenosine]",1.21 µM and 1.21 ± 0.04 µM,~450 nM,480 ± 30 nM,1710 ± 50 nM,4 to 10 h,
"OC[C@H]1O[C@@H](n2cnc3c(N[C@@H]4CCOC4)ncnc32)[C@H](O)[C@@H]1O [Tecadenoson, tecadenoson]",7.73 ± 0.23 µM,2900 ± 100 nM,2950 ± 110 nM,11900 ± 320 nM,,
"Nc1ncnc2c1ncn2[C@@H]1O[C@H](CO)[C@@H](O)[C@@H]1O [Vidarabine, Arabinosyladenine]",8.10 ± 0.25 µM,3200 ± 130 nM,3230 ± 130 nM,12600 ± 350 nM,,
